Assay results taken from ChEMBL document CHEMBL4184125, “SIRT1 activator isolated from artificial gastric juice incubate of total saponins in stems and leaves of Panax ginseng” (Bioorg Med Chem Lett, 2018).
Active and inactive are the calls of the source. No cut-off for these calls is given here.

What was measured:
[1] = molecular target: T1, NAD-dependent protein deacetylase sirtuin-1 (Homo sapiens) (UniProt Q96EB6); assay: Activation of SIRT1 (unknown origin) assessed as Fluor de Lys deacetylation at 10 to 20 uM incubated for 5 mins followed by substrate addition measured after 45 mins in presence of NAD/NADH by fluorescence assay
T1 sequence (whole entry): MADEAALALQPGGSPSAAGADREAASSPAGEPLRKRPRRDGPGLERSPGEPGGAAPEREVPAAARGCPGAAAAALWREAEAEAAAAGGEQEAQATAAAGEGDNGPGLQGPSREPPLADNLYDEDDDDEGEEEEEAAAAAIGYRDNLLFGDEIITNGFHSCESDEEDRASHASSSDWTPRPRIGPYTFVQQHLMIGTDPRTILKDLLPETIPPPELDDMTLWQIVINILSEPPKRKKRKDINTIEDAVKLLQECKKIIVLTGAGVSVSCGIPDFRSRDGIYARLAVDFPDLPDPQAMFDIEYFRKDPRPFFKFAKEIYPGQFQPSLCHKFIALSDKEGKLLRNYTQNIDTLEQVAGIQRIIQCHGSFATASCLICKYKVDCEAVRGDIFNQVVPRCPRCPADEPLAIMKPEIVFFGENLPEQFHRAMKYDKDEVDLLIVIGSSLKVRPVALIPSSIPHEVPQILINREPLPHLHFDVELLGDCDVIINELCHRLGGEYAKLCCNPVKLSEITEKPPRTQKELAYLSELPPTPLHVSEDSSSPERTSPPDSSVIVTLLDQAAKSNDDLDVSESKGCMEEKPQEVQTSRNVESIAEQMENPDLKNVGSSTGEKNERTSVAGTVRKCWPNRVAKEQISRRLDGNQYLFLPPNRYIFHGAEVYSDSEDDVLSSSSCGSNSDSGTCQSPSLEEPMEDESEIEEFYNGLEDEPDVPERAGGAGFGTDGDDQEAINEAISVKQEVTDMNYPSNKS

[2] = molecular target: T1, NAD-dependent protein deacetylase sirtuin-1 (Homo sapiens); assay: Inhibition of SIRT1 (unknown origin) assessed as reduction in Fluor de Lys deacetylation at 10 to 20 uM incubated for 5 mins followed by substrate addition measured after 45 mins in presence of NAD/NADH by fluorescence assay

| Activity [1] | inhibition [2] | Compound |
| --- | --- | --- |
| Active | inactive | CC(C)=CCC[C@@](C)(O)[C@H]1CC[C@]2(C)[C@@H]1[C@H](O)C[C@@H]1[C@@]3(C)CC[C@H](O[C@@H]4O[C@H](CO)[C@@H](O)[C@H](O)[C@H]4O[C@@H]4O[C@H](CO)[C@@H](O)[C@H](O)[C@H]4O)C(C)(C)[C@@H]3CC[C@]12C |
|  | inactive | C/C(=C/CC[C@@](C)(O)[C@H]1CC[C@]2(C)[C@@H]1[C@H](O)C[C@@H]1[C@@]3(C)CC[C@H](O)C(C)(C)[C@@H]3[C@@H](O)C[C@]12C)CO |
|  | inactive | NC(=O)c1cccnc1 |
|  | inactive | C=C(CCC=C(C)C)[C@H]1CC[C@]2(C)[C@@H]1[C@H](O)C[C@@H]1[C@@]3(C)CC[C@H](O)C(C)(C)[C@@H]3[C@@H](O[C@@H]3O[C@H](CO)[C@@H](O)[C@H](O)[C@H]3O[C@@H]3O[C@@H](C)[C@H](O)[C@@H](O)[C@H]3O)C[C@]12C |
| inactive | inactive | CC(C)(O)CCC[C@](C)(O)[C@H]1CC[C@]2(C)[C@@H]1[C@H](O)C[C@@H]1[C@@]3(C)CC[C@H](O)C(C)(C)[C@@H]3[C@@H](O)C[C@]12C |
| Active | inactive | CC(C)=CCC[C@](C)(O)[C@H]1CC[C@]2(C)[C@@H]1[C@H](O)C[C@@H]1[C@@]3(C)CC[C@H](O[C@@H]4O[C@H](CO)[C@@H](O)[C@H](O)[C@H]4O)C(C)(C)[C@@H]3[C@@H](O)C[C@]12C |
|  | inactive | CC(C)=CCC[C@@](C)(O)[C@H]1CC[C@]2(C)[C@@H]1[C@H](O)C[C@@H]1[C@@]3(C)CC[C@H](O)C(C)(C)[C@@H]3[C@@H](O[C@@H]3O[C@H](CO)[C@@H](O)[C@H](O)[C@H]3O[C@@H]3O[C@@H](C)[C@H](O)[C@@H](O)[C@H]3O)C[C@]12C |
|  | inactive | C/C(=C\CCC(C)(C)O)[C@H]1CC[C@]2(C)[C@@H]1[C@H](O)C[C@@H]1[C@@]3(C)CC[C@H](O)C(C)(C)[C@@H]3[C@@H](O)C[C@]12C |
| Active | inactive | CC(C)=CC/C=C(\C)[C@H]1CC[C@]2(C)[C@@H]1[C@H](O)C[C@@H]1[C@@]3(C)CC[C@H](O[C@@H]4O[C@H](CO)[C@@H](O)[C@H](O)[C@H]4O[C@@H]4O[C@H](CO)[C@@H](O)[C@H](O)[C@H]4O)C(C)(C)[C@@H]3CC[C@]12C |
| Active | inactive | CC(C)=CCC[C@](C)(O[C@@H]1O[C@H](CO)[C@@H](O)[C@H](O)[C@H]1O)[C@H]1CC[C@]2(C)[C@@H]1[C@H](O)C[C@@H]1[C@@]3(C)CC[C@H](O)C(C)(C)[C@@H]3[C@@H](O)C[C@]12C |
|  | inactive | CC(C)=CCC[C@](C)(O)[C@H]1CC[C@]2(C)[C@@H]1[C@H](O)C[C@@H]1[C@@]3(C)CC[C@H](O)C(C)(C)[C@@H]3[C@@H](O[C@@H]3O[C@H](CO)[C@@H](O)[C@H](O)[C@H]3O[C@@H]3O[C@@H](C)[C@H](O)[C@@H](O)[C@H]3O)C[C@]12C |
|  | inactive | CC(C)=CCC[C@@](C)(O)[C@H]1CC[C@]2(C)[C@@H]1[C@H](O)C[C@@H]1[C@@]3(C)CC[C@H](O[C@@H]4O[C@H](CO)[C@@H](O)[C@H](O)[C@H]4O)C(C)(C)[C@@H]3[C@@H](O)C[C@]12C |
| Active | inactive | CC(C)=CCC[C@](C)(O)[C@H]1CC[C@]2(C)[C@@H]1[C@H](O)C[C@@H]1[C@@]3(C)CC[C@H](O[C@@H]4O[C@H](CO)[C@@H](O)[C@H](O)[C@H]4O[C@@H]4O[C@H](CO)[C@@H](O)[C@H](O)[C@H]4O)C(C)(C)[C@@H]3CC[C@]12C |
| inactive | inactive | CC(C)(O)CCC[C@@](C)(O)[C@H]1CC[C@]2(C)[C@@H]1[C@H](O)C[C@@H]1[C@@]3(C)CC[C@H](O)C(C)(C)[C@@H]3[C@@H](O)C[C@]12C |
|  | inactive | Oc1ccc(/C=C/c2cc(O)cc(O)c2)cc1 |
| Active | inactive | C=C(CCC=C(C)C)[C@H]1CC[C@]2(C)[C@@H]1[C@H](O)C[C@@H]1[C@@]3(C)CC[C@H](O)C(C)(C)[C@@H]3[C@@H](O[C@@H]3O[C@H](CO)[C@@H](O)[C@H](O)[C@H]3O)C[C@]12C |
|  | inactive | CCOC(C)(C)CC/C=C(\C)[C@H]1CC[C@]2(C)[C@@H]1[C@H](O)C[C@@H]1[C@@]3(C)CC[C@H](O)C(C)(C)[C@@H]3[C@@H](O)C[C@]12C |
| Active |  | CC(C)=CCC[C@](C)(O)[C@H]1CC[C@]2(C)[C@@H]1[C@H](O)C[C@@H]1[C@@]3(C)CC[C@H](O)C(C)(C)[C@@H]3CC[C@]12C |
|  | inactive | C/C(=C/CCC(C)(C)O)[C@H]1CC[C@]2(C)[C@@H]1[C@H](O)C[C@@H]1[C@@]3(C)CC[C@H](O)C(C)(C)[C@@H]3[C@@H](O)C[C@]12C |
|  | inactive | C/C(=C\CCC(C)(C)O)[C@H]1CC[C@]2(C)[C@@H]1[C@H](O)C[C@@H]1[C@@]3(C)CC[C@H](O[C@@H]4O[C@H](CO)[C@@H](O)[C@H](O)[C@H]4O)C(C)(C)[C@@H]3[C@@H](O)C[C@]12C |

| Compound | Activity [1] | inhibition [2] |
| --- | --- | --- |
| CC(C)=CCC[C@](C)(O)[C@H]1CC[C@]2(C)[C@@H]1[C@H](O)C[C@@H]1[C@@]3(C)CC[C@H](O[C@@H]4O[C@H](CO)[C@@H](O)[C@H](O)[C@H]4O)C(C)(C)[C@@H]3CC[C@]12C | Active | inactive |
| CC(C)=CCC[C@@](C)(O)[C@H]1CC[C@]2(C)[C@@H]1[C@H](O)C[C@@H]1[C@@]3(C)CC[C@H](O[C@@H]4O[C@H](CO)[C@@H](O)[C@H](O)[C@H]4O)C(C)(C)[C@@H]3CC[C@]12C |  | inactive |
| CC(C)=CC/C=C(\C)[C@H]1CC[C@]2(C)[C@@H]1[C@H](O)C[C@@H]1[C@@]3(C)CC[C@H](O)C(C)(C)[C@@H]3[C@@H](O[C@@H]3O[C@H](CO)[C@@H](O)[C@H](O)[C@H]3O)C[C@]12C | Active | inactive |
